In patent US20070225388A1, “Porous Bodies and Method of Production Thereof” (priority 2004, published 2007):

Assay: Dispersion of material on exposure to aqueous medium (visual)
Type: physicochemical
Details: dye not incorporated into a porous body

Compound: CCNc1ccc2ccccc2c1N=Nc1ccc(N=Nc2ccccc2)cc1 [Fat red 7B dye]
- dispersion or solubility of the dye alone in water: particles of dye remained at the bottom of the vessel
